The subject of one experiment is L-1210 leukemia. Put plainly: L-1210 leukemia transplanted tumor in mice, life span. It is filed as in vivo. The settings on record: for Percent Increase In Life Span: over controls; for increase in life span: summary of Tables I and II, drug by itself, any dose level. The arrangement: Mean Life Span: unit not given here. As for the experimental part:
In this procedure, L-1210 leukemia was maintained by weekly passage of 10^5 L-1210 cells intraperitoneally into DBA/2 mice. Diluted ascitic fluid, 0.1 ml. (10^5 cells), was administered up to female B6D2F, mice weighing about 20 g. Drugs were administered intraperitoneally to the animals. Injections containing doxorubicin were given only on day 2 and the 3,4-dihydroxybenzohydroxamic acid was given on days 2, 3 and 4.

Another experiment has as its system L1210 leukemia. The settings on record: from Elford et al. and van't Riet et al. publications; cited from earlier work.

Structures can show the parent of a compound that is named as a salt.

For the compound `O=C(NO)c1ccc(O)c(O)c1` [3,4-dihydroxybenzohydroxamic acid], the “Mean Life Span” value was 12.75 with L-1210 leukemia (Table 1, 275 Mg./Kg. intraperitoneally, days 2, 3 and 4, four mice per group); 13.0 in the experiment on L-1210 leukemia (Table 1, 430 Mg./Kg. intraperitoneally, days 2, 3 and 4, four mice per group); “no better than control” with L-1210 leukemia (Table 1, 645 Mg./Kg. intraperitoneally, days 2, 3 and 4, four mice per group); 11.0 in the experiment on L-1210 leukemia (Table 1, 645 Mg./Kg. intraperitoneally, days 2, 3 and 4, four mice per group, listed as 3,4-dihydroxy benzohydroxamic acid); 12 in the experiment on L-1210 leukemia (Table II, 430 Mg./Kg. intraperitoneally, days 2, 3 and 4, three mice per group); 13.6 with L-1210 leukemia (Table II, 645 Mg./Kg. intraperitoneally, days 2, 3 and 4, three mice per group). The “Percent Increase In Life Span” value stood at 17% in the experiment on L-1210 leukemia (Table 1, 275 Mg./Kg. intraperitoneally, days 2, 3 and 4); 19% in the experiment on L-1210 leukemia (Table 1, 430 Mg./Kg. intraperitoneally, days 2, 3 and 4); 1% in the experiment on L-1210 leukemia (Table 1, 645 Mg./Kg. intraperitoneally, days 2, 3 and 4); 32% in the experiment on L-1210 leukemia (Table II, 430 Mg./Kg. intraperitoneally, days 2, 3 and 4); 49% with L-1210 leukemia (Table II, 645 Mg./Kg. intraperitoneally, days 2, 3 and 4). The “Percent Cures” value with L-1210 leukemia (Table 1, 275 Mg./Kg. intraperitoneally, days 2, 3 and 4, survivors calculated at day 60) is listed as 0%; in the experiment with L-1210 leukemia (Table 1, 430 Mg./Kg. intraperitoneally, days 2, 3 and 4, survivors calculated at day 60), 0%; in the experiment with L-1210 leukemia (Table 1, 645 Mg./Kg. intraperitoneally, days 2, 3 and 4, survivors calculated at day 60), 0%; in the experiment on L-1210 leukemia (Table II, 430 Mg./Kg. intraperitoneally, days 2, 3 and 4, survivors calculated on day 35), 0%; with L-1210 leukemia (Table II, 645 Mg./Kg. intraperitoneally, days 2, 3 and 4, survivors calculated on day 35), 0%. Also, the “increase in life span” value in the experiment on L-1210 leukemia is “very little increase in life span”. Further, in the experiment with L1210 leukemia, the “activity against L1210 leukemia” value was “the most active”.
Turning to `COc1cccc2c1C(=O)c1c(O)c3c(c(O)c1C2=O)C[C@@](O)(C(=O)CO)C[C@@H]3O[C@H]1C[C@H](N)[C@H](O)[C@H](C)O1` [Doxorubicin hydrochloride], the “Mean Life Span” value in the experiment with L-1210 leukemia (Table 1, 6 Mg./Kg. intraperitoneally, day 2, four mice per group) is listed as 14.5; in the experiment with L-1210 leukemia (Table 1, 17 Mg./Kg. intraperitoneally, day 2, four mice per group) it was 28.5; with L-1210 leukemia (Table 1, 29 Mg./Kg. intraperitoneally, day 2, four mice per group) it was 27.75; in the experiment with L-1210 leukemia (Table II, 6 Mg./Kg. intraperitoneally, day 2, three mice per group), 13.3; in the experiment with L-1210 leukemia (Table II, 17 Mg./Kg. intraperitoneally, day 2, three mice per group), 16; in the experiment on L-1210 leukemia (Table II, 29 Mg./Kg. intraperitoneally, day 2, three mice per group) it was 26.3. In addition, the “Percent Increase In Life Span” value was found to be 33% in the experiment on L-1210 leukemia (Table 1, 6 Mg./Kg. intraperitoneally, day 2); 161% in the experiment with L-1210 leukemia (Table 1, 17 Mg./Kg. intraperitoneally, day 2); 155% in the experiment with L-1210 leukemia (Table 1, 29 Mg./Kg. intraperitoneally, day 2); 46% in the experiment on L-1210 leukemia (Table II, 6 Mg./Kg. intraperitoneally, day 2); 76% in the experiment with L-1210 leukemia (Table II, 17 Mg./Kg. intraperitoneally, day 2); 189% with L-1210 leukemia (Table II, 29 Mg./Kg. intraperitoneally, day 2). Further, the “Percent Cures” value with L-1210 leukemia (Table 1, 6 Mg./Kg. intraperitoneally, day 2, survivors calculated at day 60) is given as 0%; in the experiment on L-1210 leukemia (Table 1, 17 Mg./Kg. intraperitoneally, day 2, survivors calculated at day 60), 0%; in the experiment with L-1210 leukemia (Table 1, 29 Mg./Kg. intraperitoneally, day 2, survivors calculated at day 60), 0%; in the experiment on L-1210 leukemia (Table II, 6 Mg./Kg. intraperitoneally, day 2, survivors calculated on day 35), 0%; in the experiment with L-1210 leukemia (Table II, 17 Mg./Kg. intraperitoneally, day 2, survivors calculated on day 35), 0%; with L-1210 leukemia (Table II, 29 Mg./Kg. intraperitoneally, day 2, survivors calculated on day 35) it was 33%. Moreover, the “increase in life span” value in the experiment with L-1210 leukemia is given as “substantial increase in life span”. Also, in the experiment on L-1210 leukemia (summary of Tables, by itself, at the highest dose level tested), the survivor entry is given as “one”.

The values are drawn from patent EP0140958B1, “ONCOLYTIC DRUG COMBINATIONS” (ELFORD, Howard L., priority 1983, dated 1984).
